# Columns and labels:
# barnyardgrass [1] = experiment: Test A preemergence; assay type: in vivo, Echinochloa crus-galli; details: for Barnyardgrass plant response rating: 500 g ai/ha
# In short: (§1)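 Injury scores run from 0, no effect, to 100, complete control, judged by eye against untreated plants roughly 10 days after treatment. Chemicals carried a surfactant in a non-phytotoxic solvent and went onto loam–sand soil preemergence or onto one- to two-leaf seedlings postemergence.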
# barnyardgrass [2] = experiment: Test A postemergence; assay type: in vivo, Echinochloa crus-galli
# In short: as §1
# corn = experiment: Test A postemergence; assay type: in vivo, Zea mays
# In short: as §1
# rice = experiment: Test B flooded paddy test; assay type: in vivo, Oryza sativa; details: Flood, 250 g ai/ha; 0 to 100 scale where 0 is no effect and 100 is complete control
# In short: (§2)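 Evaluation is visual, against untreated controls, 13 to 15 days after treatment. Before treatment, plants reached the 2-leaf stage; pots were then flooded 3 cm deep, compound was added to the water, and that level was maintained. Ratings run 0 to 100, with 100 meaning complete control.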
# sedge, umbrella = experiment: Test B flooded paddy test; assay type: in vivo, Cyperus difformis; details: Flood, 250 g ai/ha; 0 to 100 scale where 0 is no effect and 100 is complete control
# In short: as §2
# galium = experiment: Test C preemergence; assay type: in vivo, Galium aparine; details: for Galium plant response rating: preemergence; for Plant response rating, Galium: Preemergence, scale 0 to 100, 0 no effect, 100 complete control
# In short: (§3)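 Plants were kept under greenhouse conditions for 13–15 days following spray. Pre-emergent application went to soil (loam–sand), post-emergent to foliage at 1–4 leaves. Evaluation: visual, percent control against untreated checks.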
# large (Lg) crabgrass [3] = experiment: Test C preemergence; assay type: in vivo, Digitaria sanguinalis; details: for Crabgrass, Large plant response rating: preemergence; for Plant response rating, Crabgrass, Large: Preemergence, scale 0 to 100, 0 no effect, 100 complete control
# In short: as §3
# johnsongrass = experiment: Test C preemergence; assay type: in vivo, Sorghum halepense; details: for Johnsongrass plant response rating: preemergence; for Plant response rating, Johnsongrass: Preemergence, scale 0 to 100, 0 no effect, 100 complete control
# In short: as §3
# velvetleaf [4] = experiment: Test C preemergence; assay type: in vivo, Abutilon theophrasti; details: for Velvetleaf plant response rating: preemergence; for Plant response rating, Velvetleaf: Preemergence, scale 0 to 100, 0 no effect, 100 complete control
# In short: as §3
# large (Lg) crabgrass [5] = experiment: Test C postemergence; assay type: in vivo, Digitaria sanguinalis; details: for Crabgrass, Large plant response rating / Plant response rating, Crabgrass, Large: scale 0 to 100 (0 no effect, 100 complete control)
# In short: as §3
# lambsquarters = experiment: Test C postemergence; assay type: in vivo, Chenopodium album
# In short: as §3
# soybean = experiment: Test C postemergence; assay type: in vivo, Glycine max
# In short: as §3
# oilseed rape = experiment: Test C postemergence; assay type: in vivo, Brassica napus
# In short: as §3
# waterhemp = experiment: Test C postemergence; assay type: in vivo, Amaranthus rudis
# In short: as §3
# velvetleaf [6] = experiment: Test C postemergence; assay type: in vivo, Abutilon theophrasti
# In short: as §3
# [7] = 125 g ai/ha, 0 to 100 scale where 0 is no effect and 100 is complete control
# [8] = 500 g ai/ha, 0 to 100 scale where 0 is no effect and 100 is complete control
# [9] = 16 g ai/ha, scale 0 to 100 (0 no effect, 100 complete control)
# [10] = 125 g ai/ha, scale 0 (no effect) to 100 (complete control)
# [11] = 16 g ai/ha, postemergence, 0 is no effect, 100 is complete control
# [12] = 31 g ai/ha, postemergence, visual rating, scale 0 to 100 (0 no effect, 100 complete control), 13 to 15 days
# [13] = 125 g ai/ha, postemergence, visual rating, scale 0 to 100 (0 no effect, 100 complete control)
# [14] = Postemergence, 62 g ai/ha, scale 0 to 100 (0 no effect, 100 complete control), 13 to 15 days
# [15] = 0 to 100 scale, 0 no effect, 100 complete control, approx. 10 days
# [16] = 500 g ai/ha, 0 to 100 scale, 0 no effect, 100 complete control
# [17] = 62 g ai/ha, scale 0 (no effect) to 100 (complete control)
# [18] = 16 g ai/ha, postemergence, visual rating, 13 to 15 days
# [19] = Postemergence, 31 g ai/ha, 13 to 15 days
# [20] = Postemergence, 31 g ai/ha, scale 0 to 100 (0 no effect, 100 complete control), 13 to 15 days
# [21] = Postemergence, 62 g ai/ha, scale 0 to 100 (0 no effect, 100 complete control)
compound,measurement,setting,value
N#Cc1cnn(-c2c(Oc3ncc(Cl)cn3)cccc2C(F)F)c1 [Compound 236],"Barnyardgrass plant response rating (0 to 100 scale, 0 is no effect, 100 is complete control)",barnyardgrass [1]; 125 g ai/ha,100
same,Barnyardgrass plant response rating,barnyardgrass [1]; 0 to 100 scale where 0 is no effect and 100 is complete control,100
same,Barnyardgrass plant response rating,barnyardgrass [2]; [7],100
same,"Plant response rating, Barnyardgrass",barnyardgrass [2]; [8],100
same,Corn plant response rating,corn; [7],70
same,"Plant response rating, Corn",corn; [8],100
same,"Plant response rating, Rice",rice,0
same,"Plant response rating, Sedge, Umbrella","sedge, umbrella",100
same,Galium plant response rating,galium; [9],90
same,Galium plant response rating,galium; [10],100
same,"Plant response rating, Galium",galium; 62 g ai/ha,100
same,"Crabgrass, Large plant response rating",large (Lg) crabgrass [3]; [9],90
same,"Crabgrass, Large plant response rating",large (Lg) crabgrass [3]; [10],100
same,"Plant response rating, Crabgrass, Large",large (Lg) crabgrass [3]; 62 g ai/ha,100
same,Johnsongrass plant response rating,johnsongrass; [9],5
same,Johnsongrass plant response rating,johnsongrass; [10],85
same,"Plant response rating, Johnsongrass",johnsongrass; 62 g ai/ha,60
same,Velvetleaf plant response rating,velvetleaf [4]; [9],65
same,Velvetleaf plant response rating,velvetleaf [4]; [10],100
same,"Plant response rating, Velvetleaf",velvetleaf [4]; 62 g ai/ha,100
same,"Plant response rating (0 to 100), Crabgrass, Large",large (Lg) crabgrass [5]; [11],5
same,"Crabgrass, Large plant response rating","large (Lg) crabgrass [5]; 31 g ai/ha, postemergence, visual rating, 13 to 15 days",5
same,"Plant response rating, Crabgrass, Large","large (Lg) crabgrass [5]; 125 g ai/ha, postemergence, visual rating",5
same,"Plant response rating, Crabgrass, Large","large (Lg) crabgrass [5]; Postemergence, 62 g ai/ha, 13 to 15 days",5
same,"Plant response rating (0 to 100), Lambsquarters",lambsquarters; [11],80
same,Lambsquarters plant response rating,lambsquarters; [12],85
same,"Plant response rating, Lambsquarters",lambsquarters; [13],90
same,"Plant response rating, Lambsquarters",lambsquarters; [14],75
same,"Plant response rating (0 to 100), Soybean",soybean; [11],60
same,Soybean plant response rating,soybean; [12],75
same,"Plant response rating, Soybean",soybean; [13],95
same,"Plant response rating, Soybean",soybean; [14],85
same,"Plant response rating (0 to 100), Oilseed Rape",oilseed rape; [11],30
same,Oilseed Rape plant response rating,oilseed rape; [12],10
same,"Plant response rating, Oilseed Rape",oilseed rape; [13],65
same,"Plant response rating, Oilseed Rape",oilseed rape; [14],30
same,"Plant response rating (0 to 100), Waterhemp",waterhemp; [11],70
same,Waterhemp plant response rating,waterhemp; [12],70
same,"Plant response rating, Waterhemp",waterhemp; [13],90
same,"Plant response rating, Waterhemp",waterhemp; [14],90
same,"Plant response rating (0 to 100), Velvetleaf",velvetleaf [6]; [11],55
same,Velvetleaf plant response rating,velvetleaf [6]; [12],65
same,"Plant response rating, Velvetleaf",velvetleaf [6]; [13],80
same,"Plant response rating, Velvetleaf",velvetleaf [6]; [14],85
FCc1cccc(Oc2ncc(Cl)cn2)c1-n1cc(Br)cn1 [Compound 83],"Plant response rating, Barnyardgrass",barnyardgrass [1]; [7],60
same,Barnyardgrass plant response rating,barnyardgrass [1]; [15],90
same,"Plant response rating, Barnyardgrass",barnyardgrass [2]; [7],90
same,"Plant response rating, Barnyardgrass",barnyardgrass [2]; [16],100
same,"Plant response rating, Corn",corn; [7],40
same,"Plant response rating, Corn",corn; [16],60
same,"Plant response rating, Rice",rice,0
same,"Plant response rating, Sedge, Umbrella","sedge, umbrella",45
same,Galium plant response rating,galium; [9],0
same,Galium plant response rating,galium; [17],85
same,Galium plant response rating,galium; [10],100
same,"Plant response rating, Galium",galium; 31 g ai/ha,0
same,"Crabgrass, Large plant response rating",large (Lg) crabgrass [3]; [9],65
same,"Crabgrass, Large plant response rating",large (Lg) crabgrass [3]; [17],100
same,"Crabgrass, Large plant response rating",large (Lg) crabgrass [3]; [10],100
same,"Plant response rating, Crabgrass, Large",large (Lg) crabgrass [3]; 31 g ai/ha,85
same,Johnsongrass plant response rating,johnsongrass; [9],0
same,Johnsongrass plant response rating,johnsongrass; [17],50
same,Johnsongrass plant response rating,johnsongrass; [10],85
same,"Plant response rating, Johnsongrass",johnsongrass; 31 g ai/ha,0
same,Velvetleaf plant response rating,velvetleaf [4]; [9],60
same,Velvetleaf plant response rating,velvetleaf [4]; [17],100
same,Velvetleaf plant response rating,velvetleaf [4]; [10],100
same,"Plant response rating, Velvetleaf",velvetleaf [4]; 31 g ai/ha,100
same,"Crabgrass, Large plant response rating",large (Lg) crabgrass [5]; [18],5
same,"Plant response rating (0 to 100), Crabgrass, Large","large (Lg) crabgrass [5]; 125 g ai/ha, postemergence",10
same,"Plant response rating, Crabgrass, Large",large (Lg) crabgrass [5]; [19],5
same,"Plant response rating, Crabgrass, Large","large (Lg) crabgrass [5]; Postemergence, 62 g ai/ha",10
same,"Plant response rating (0 to 100), Lambsquarters","lambsquarters; 125 g ai/ha, postemergence",80
same,"Plant response rating, Lambsquarters",lambsquarters; [20],80
same,"Plant response rating, Lambsquarters",lambsquarters; [21],60
same,"Plant response rating (0 to 100), Soybean","soybean; 125 g ai/ha, postemergence",90
same,"Plant response rating, Soybean",soybean; [20],60
same,"Plant response rating, Soybean",soybean; [21],70
same,"Plant response rating (0 to 100), Oilseed Rape","oilseed rape; 125 g ai/ha, postemergence",80
same,"Plant response rating, Oilseed Rape",oilseed rape; [20],50
same,"Plant response rating, Oilseed Rape",oilseed rape; [21],55
same,"Plant response rating (0 to 100), Waterhemp","waterhemp; 125 g ai/ha, postemergence",90
same,"Plant response rating, Waterhemp",waterhemp; [20],50
same,"Plant response rating, Waterhemp",waterhemp; [21],70
same,"Plant response rating (0 to 100), Velvetleaf","velvetleaf [6]; 125 g ai/ha, postemergence",65
same,"Plant response rating, Velvetleaf",velvetleaf [6]; [20],55
same,"Plant response rating, Velvetleaf",velvetleaf [6]; [21],50
CCOc1cn(-c2c(Br)cccc2Oc2ncc(Cl)cn2)nn1 [Compound 84],"Plant response rating, Barnyardgrass",barnyardgrass [1]; [7],50
same,Barnyardgrass plant response rating,barnyardgrass [1]; [15],90
same,"Plant response rating, Barnyardgrass",barnyardgrass [2]; [7],70
same,"Plant response rating, Barnyardgrass",barnyardgrass [2]; [16],100
same,"Plant response rating, Corn",corn; [7],20
same,"Plant response rating, Corn",corn; [16],70
same,"Plant response rating, Rice",rice,0
same,"Plant response rating, Sedge, Umbrella","sedge, umbrella",30
same,Galium plant response rating,galium; [9],80
same,Galium plant response rating,galium; [17],100
same,Galium plant response rating,galium; [10],100
same,"Plant response rating, Galium",galium; 31 g ai/ha,90
same,"Crabgrass, Large plant response rating",large (Lg) crabgrass [3]; [9],45
same,"Crabgrass, Large plant response rating",large (Lg) crabgrass [3]; [17],100
same,"Crabgrass, Large plant response rating",large (Lg) crabgrass [3]; [10],100
same,"Plant response rating, Crabgrass, Large",large (Lg) crabgrass [3]; 31 g ai/ha,98
same,Johnsongrass plant response rating,johnsongrass; [9],0
same,Johnsongrass plant response rating,johnsongrass; [17],40
same,Johnsongrass plant response rating,johnsongrass; [10],85
same,"Plant response rating, Johnsongrass",johnsongrass; 31 g ai/ha,20
same,Velvetleaf plant response rating,velvetleaf [4]; [9],50
same,Velvetleaf plant response rating,velvetleaf [4]; [17],85
same,Velvetleaf plant response rating,velvetleaf [4]; [10],100
same,"Plant response rating, Velvetleaf",velvetleaf [4]; 31 g ai/ha,60
same,"Crabgrass, Large plant response rating",large (Lg) crabgrass [5]; [18],5
same,"Plant response rating (0 to 100), Crabgrass, Large","large (Lg) crabgrass [5]; 125 g ai/ha, postemergence",30
same,"Plant response rating, Crabgrass, Large",large (Lg) crabgrass [5]; [19],5
same,"Plant response rating, Crabgrass, Large","large (Lg) crabgrass [5]; Postemergence, 62 g ai/ha",5
same,"Plant response rating (0 to 100), Lambsquarters","lambsquarters; 125 g ai/ha, postemergence",80
same,"Plant response rating, Lambsquarters",lambsquarters; [20],30
same,"Plant response rating, Lambsquarters",lambsquarters; [21],55
same,"Plant response rating (0 to 100), Soybean","soybean; 125 g ai/ha, postemergence",90
same,"Plant response rating, Soybean",soybean; [20],55
same,"Plant response rating, Soybean",soybean; [21],90
same,"Plant response rating (0 to 100), Oilseed Rape","oilseed rape; 125 g ai/ha, postemergence",60
same,"Plant response rating, Oilseed Rape",oilseed rape; [20],20
same,"Plant response rating, Oilseed Rape",oilseed rape; [21],45
same,"Plant response rating (0 to 100), Waterhemp","waterhemp; 125 g ai/ha, postemergence",70
same,"Plant response rating, Waterhemp",waterhemp; [20],50
same,"Plant response rating, Waterhemp",waterhemp; [21],70
same,"Plant response rating (0 to 100), Velvetleaf","velvetleaf [6]; 125 g ai/ha, postemergence",90
same,"Plant response rating, Velvetleaf",velvetleaf [6]; [20],45
same,"Plant response rating, Velvetleaf",velvetleaf [6]; [21],70
